This note sets out measurements from publication PMC4581192, “Fenarimol, a Pyrimidine-Type Fungicide, Inhibits Brassinosteroid Biosynthesis” (International Journal of Molecular Sciences, 2015).

One may read the Kd as the free concentration of one partner at which half of the binding sites on the other are occupied at equilibrium, for simple one-to-one binding.

The target of the assay is T1, CYP90D1 (Arabidopsis thaliana, UniProt Q94IA6).
T1 construct: DNA fragment encoding CYP90D1 mature protein; expressed from pCold-GST in E. coli, fusion protein cleaved with HRV3C protease
T1 sequence (Q94IA6 1-491): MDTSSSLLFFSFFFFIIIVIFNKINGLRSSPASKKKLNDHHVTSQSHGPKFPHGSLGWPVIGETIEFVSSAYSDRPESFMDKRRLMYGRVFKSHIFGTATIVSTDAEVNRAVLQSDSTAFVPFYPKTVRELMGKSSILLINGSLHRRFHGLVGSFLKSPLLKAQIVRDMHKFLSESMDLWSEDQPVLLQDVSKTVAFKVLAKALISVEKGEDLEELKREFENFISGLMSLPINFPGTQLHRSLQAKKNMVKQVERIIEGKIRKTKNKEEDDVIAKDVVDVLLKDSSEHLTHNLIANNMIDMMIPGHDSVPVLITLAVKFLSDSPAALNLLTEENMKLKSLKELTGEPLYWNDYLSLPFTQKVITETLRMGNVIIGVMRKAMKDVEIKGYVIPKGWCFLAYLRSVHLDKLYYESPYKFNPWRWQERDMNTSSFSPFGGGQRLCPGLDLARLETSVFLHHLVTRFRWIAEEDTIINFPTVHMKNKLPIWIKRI
Nature of the assay: optical difference spectroscopy (type II spectral titration) of purified recombinant CYP90D1. The format is binding.

With `OC(c1ccc(Cl)cc1)(c1cncnc1)c1ccccc1Cl` (stereo not shown) [FM, fenarimol], the Kd is 790 nM.
